Measured values taken from patent US10183919B2 (priority 2014, dated 2019).
Like-named read-outs stand apart in the source and are kept apart here.

Experiments:
[1] = target: T1, Human MOR (Homo sapiens, UniProt P35372); test: cell-based
T1 construct: expressed in transfected cells; host or cells: HEK-293T
Text: (§1) Transfection. Human or mouse MOR cDNA was transfected alongside GαoB with RLuc8 inserted at position 91 (GαoB-RLuc8), Gβ1 (β1), and Gγ2 fused to the full-length mVenus at its N terminus (mVenus-γ2) into HEK-293T cells (5×10^6 cells/plate) in 10-cm dishes using PEI (Polysciences Inc.; Warrington, Pa.) in a 1:1 ratio diluted in Opti-MEM (Life Technologies Corp.; Grand Island, N.Y.) to assay for G protein activation as described previously (Rives, M.-L. et al. J. Biol. Chem. 2012, 287, 27050-4; Negri, A.; Rives, M.-L.; Caspers, M. J. et al. J. Chem. Inf. Model. 2013, 53, 521-526). Cells were maintained in the Dulbecco's Modified Eagle Medium (high glucose #11965; Life Technologies) supplemented with 10% FBS (Premium Select, Atlanta Biologicals; Atlanta, Ga.) and 100 U/mL penicillin and 100 μg/mL streptomycin (#15140, Life Technologies). After 24 hours the media was changed, and the experiment was performed 24 hours later (48 hours after transfection).
(§2) BRET. Transfected cells were dissociated and resuspended in phosphate-buffered saline (PBS). Approximately 200,000 cells/well were added to a black-framed, white well 96-well plate (#60050; Perkin Elmer; Waltham, Mass.). The microplate was centrifuged and the cells were resuspended in PBS. Then 5 μM of the luciferase substrate coelenterazine H was added to each well for 5 minutes. Following coelenterazine H addition, ligands were added and the BRET signal was measured at 5 minutes on a PHERAstar FS plate reader. Quantification of the BRET signal required calculating the ratio of the light emitted by the energy acceptor, mVenus (510-540 nm), over the light emitted by the energy donor, RLuc8 (485 nm). […] Dose response curves were fit using three-parameter logistics equation in GraphPad Prism 6.

[2] = target: T2, Mouse MOR (Mus musculus, UniProt P42866); test: BRET G protein activation assay, HEK-293T cells transfected with mouse MOR; format: cell-based
T2 construct: expressed in transfected cells; host or cells: HEK-293T
Text: as §1, §2

[3] = Pharmacokinetics and brain distribution after a single intraperitoneal dose; settings: i.p. 10 mg/kg, male C57BL/6 mice
Description: For each compound, a group of twenty four male mice were administered with a solution formulation of the drug in normal saline intraperitoneally at a dose of 10 mg/kg. Blood samples (approximately 60 μL) were collected under light isoflurane anesthesia from the retro orbital plexus at 0.08, 0.25, 0.5, 1, 2, 4, 8 and 24 hr. Plasma samples were separated by centrifugation of whole blood and stored below −70° C. until bioanalysis. Immediately after collection of blood, brain samples were collected from each mouse at 0.08, 0.25, 0.5, 1, 2, 4, 8 and 24 hr. Brain samples were homogenized using ice-cold phosphate buffer saline (pH 7.4) and homogenates were stored below −70° C. until analysis. Total homogenate volume was three times the tissue weight. All samples were processed for analysis by protein precipitation using acetonitrile (ACN) and analyzed with fit-for-purpose LC/MS/MS method (LLOQ-1.01 ng/mL in plasma and brain). Pharmacokinetic parameters were calculated using the non-compartmental analysis tool of Phoenix WinNonlin® (Version 6.3).

[4] = BRET G protein activation, HEK-293T, mean ± SEM of independent trials, read-out: EC50 Mouse MOR

T2 sequence (P42866 whole entry): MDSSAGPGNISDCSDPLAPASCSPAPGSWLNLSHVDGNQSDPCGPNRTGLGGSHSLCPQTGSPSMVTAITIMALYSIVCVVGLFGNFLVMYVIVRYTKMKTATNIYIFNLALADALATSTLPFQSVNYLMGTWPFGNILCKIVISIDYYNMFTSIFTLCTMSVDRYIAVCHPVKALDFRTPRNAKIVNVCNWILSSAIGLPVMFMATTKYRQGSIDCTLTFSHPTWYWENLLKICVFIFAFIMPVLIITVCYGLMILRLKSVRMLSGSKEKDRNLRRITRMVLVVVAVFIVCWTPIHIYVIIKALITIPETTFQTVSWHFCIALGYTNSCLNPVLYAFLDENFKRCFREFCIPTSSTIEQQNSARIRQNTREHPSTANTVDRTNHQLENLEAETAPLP
T1 sequence (P35372 whole entry): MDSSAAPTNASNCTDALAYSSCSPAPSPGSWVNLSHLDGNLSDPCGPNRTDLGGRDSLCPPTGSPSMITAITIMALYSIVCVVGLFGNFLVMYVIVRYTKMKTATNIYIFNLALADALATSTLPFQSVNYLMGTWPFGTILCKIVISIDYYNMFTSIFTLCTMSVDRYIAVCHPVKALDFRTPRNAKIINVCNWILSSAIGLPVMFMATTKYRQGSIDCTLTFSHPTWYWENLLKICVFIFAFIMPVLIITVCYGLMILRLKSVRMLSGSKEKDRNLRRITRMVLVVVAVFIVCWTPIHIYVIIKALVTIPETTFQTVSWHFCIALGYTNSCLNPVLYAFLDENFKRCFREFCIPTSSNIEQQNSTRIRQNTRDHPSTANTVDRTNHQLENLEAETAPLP

Row | Compound | EC50 [1] | EC50 [2, 4] | other results
1 | CN1c2ccccc2C(NCCCCCCC(=O)O)c2ccc(Cl)cc2S1(=O)=O (centres unmarked) [tianeptine, reference compound] | 0.194 ± 0.07 µM |  | EC50 [2]: 0.641 ± 0.12 µM
2 | CCCNC1c2ccccc2N(C)S(=O)(=O)c2cc(Cl)ccc21 (centres unmarked) [compound 21, 3-Chloro-6-methyl-11-(propylamino)-6,11-dihydrodibenzo [c,f][1,2]thiazepine 5,5-dioxide] | < 10 µM | < 10 µM | 
3 | CCCCCNC1c2ccccc2N(C)S(=O)(=O)c2cc(Cl)ccc21 (centres unmarked) [compound 19, 3-Chloro-6-methyl-11-(pentylamino)-6,11-dihydrodibenzo [c,f][1,2]thiazepine 5,5-dioxide] | < 10 µM | < 10 µM | 
4 | CCOC(=O)CCCCCCNC1c2ccccc2N(C)S(=O)(=O)c2cc(SC)ccc21 (centres unmarked) [compound 45, Ethyl 7-((6-methyl-3-(methylthio)-5,5-dioxido-6,11-dihydrodibenzeo[c,f] [1,2] 1, 2lazepin-11-yl)amino) heptanotate] | < 10 µM | < 10 µM | 
5 | COCCCNC1c2ccccc2N(C)S(=O)(=O)c2cc(SC)ccc21 (centres unmarked) [compound 44, 11-((3-Methoxypropyl)amino)-6-methyl-3-(methylthio)-6, 11-dihydrodibenzo[c,f][1,2]thiazepine 5,5-dioxide] | < 10 µM | < 10 µM | 
6 | CNC1c2ccccc2N(C)S(=O)(=O)c2cc(Cl)ccc21 (centres unmarked) [compound 20, 3-Chloro-6-methyl-11-(methylamino)-6,11-dihydrodibenzo [c,f][1,2]thiazepine 5,5-dioxide] | < 10 µM | < 10 µM | 
7 | CC(C)NC1c2ccccc2N(C)S(=O)(=O)c2cc(Cl)ccc21 (centres unmarked) [compound 22, 3-Chloro-11-(isopropylamino)-6-methyl-6,11-dihydrodibenzo [c,f][1,2]thiazepine 5,5-dioxide] | < 10 µM | < 10 µM | 
8 | COCCCNC1c2ccccc2N(C)S(=O)(=O)c2cc(Cl)ccc21 (centres unmarked) [compound 23, 3-Chloro-11-((3-methoxypropyl)amino)-6-methyl-6,11-dihydrodibenzo [c,f][1,2]thiazepine 5,5-dioxide] | 0.264 ± 0.0853 µM | 1.2 ± 0.03 µM | AUClast ([3]; brain): 335.03 ng·h/g; CL ([3]; brain): 260.44 mL/min/kg; MRTlast ([3]; brain): 1.27 h; T1/2 ([3]; brain): 5.12 h; Tmax ([3]; brain): 0.08 h; half-life compared with tianeptine ([3]; Tables 3 and 4): much longer half-life; systemic exposure (AUC) compared with tianeptine ([3]; Tables 3 and 4): higher systemic exposure (AUC); AUClast ([3]; plasma): 3058.80 ng·h/mL; CL ([3]; plasma): 44.27 mL/min/kg; Cmax ([3]; plasma): 1535.74 ng/mL; MRTlast ([3]; plasma): 2.29 h; T1/2 ([3]; plasma): 3.93 h; Tmax ([3]; plasma): 0.25 h
